In patent US9771345B2, “Coferons and methods of making and using them” (Cornell University, priority 2009, dated 2017):

Legend:
[1] = Alizarin Red S displacement: equilibrium between boronic acid and diols or other ligands; assay type: physicochemical; settings: 0.10 M phosphate buffer, pH 7.4; no Keq range given
From the text: To assess the potential of boronic acid diol pairs as potential summa linkers within Coferons, the Alizarin Red S method was used essentially as described (Springsteen, G. and Wang, B, Tetrahedron 58: 5291-5300 (2002), which is hereby incorporated by reference in its entirety). Alizarin Red S gives a red color when free in solution, and shifts to yellow when complexed to boronic acids.
To determine equilibria between boronic acid species and diols or other ligands, a solution containing 2.0×10^−3 M boronic acid, 1.0×10^−4 M of ARS in 0.10 M phosphate buffer, pH 7.4 was prepared. Diol or other ligands from 3×10^−2 M to 1.0×10^−4 M were serially diluted into the above boronic acid-ARS mix, and absorbance spectra were determined from 350 to 750 nm. (stock solutions were made to 100 mM in DMSO). The higher concentrations of diol would displace the boronic acid from complexation with ARS, liberating free ARS and turning the solution pink. The percent complexed and percent free ARS was determined by comparing absorbance level to fully complexed and free ARS at 440 and 550 nm. The approximate equilibrium constant Keq2 for a given boronic acid-diol complexation was estimated using the formula: Keq=[ARS−PBA]/[ARS]×[PBA] [PBA]=[ARS−PBA]/[ARS]×Keq [Sorb−PBA]=0.002−[PBA]−[ARS−PBA] [Sorb]=Total Sorb−[Sorb−PBA] Keq2=[Sorb PBA]/[Sorb]×[PBA] (where ARS=Alizarin Red S; Sorb=sorbitol; and PBA=Phenylboronic acid as an example).

[2] = LC-MS/MS determination of dimerization of summa linkers; assay type: physicochemical; settings: for Dimer 4 level: after 115 h
From the text: For summa linkers and coferons that form dimers that are slow to hydrolyze/equilibrate under the chromatographic conditions, evidence for dimerization or oligomerization may be generated using LC-MS/MS methods in which the monomeric and dimeric species are separated by reversed-phase liquid chromatography and identified using tandem mass spectrometric methods, typically utilizing MRM transitions to maximize sensitivity. Often this approach is capable of separating and quantifying isomeric and diastereomeric dimeric states of the summa linker and coferon assemblies.
Typically, a solution of the following homodimeric summa linker was incubated under various conditions of pH, concentration, organic cosolvent, or protein additives, etc. and aliquots were chromatographed on a Primesep 200 (150×4.6 mm, 5μ) RP-HPLC column using a flow rate of 1.0 mL/min and a linear gradient of 0.1% aqueous TFA/acetonitrile over 25-30 minutes. Preparations containing a known amount of dimeric species (as determined by NMR for example) can be employed as a standard to allow for accurate quantitation of monomeric and dimeric states. For example, using such conditions, 4 isomeric dimers of the following racemic amino-cyclobutanone summa linker moiety (RT 7.29 min; example 47; >99.7% monomeric) were quantified under various conditions. When incubated at 0.125 mg/mL at 20° C. at pH 2.0 in 0.1% TFA, dimers-1, -2 & -3 eluting at 15, 15.5 and 16 min, respectively, increased from 0.06%, 0.06% and 0.11% at time zero to 2.35, 2.3%, and 5.2% after 169 h; dimer-4 was not observed under these conditions. […] Complete equilibrium between monomer and dimer-4 was not achieved within this timeframe, as dimer-4 was still increasing at 169 h.

[3] = 0.125 mg/mL, 20° C., pH 2.0 in 0.1% TFA, after 169 h
[4] = 0.125 mg/mL, 20° C., pH 2.0 in 0.1% TFA, time zero

Row | affinity of diol or other ligand for boronic acids in aqueous solution (in words) [1] | SMILES | also measured
1 | lower affinities for boronic acids | O=C(O)c1c(O)cccc1O [2,6-dihydroxybenzoic acid, 2,6-Dihydroxybenzoic acid] | –
2 | lower affinities for boronic acids | OCC(CO)(CO)CO [pentaerythritol, Pentaerythritol] | –
3 | lower affinities for boronic acids | CC(=O)Nc1ccccc1O [2-acetamidophenol, 2-Acetamidophenol] | –
4 | lower affinities for boronic acids | O=C(O)C(O)c1c(F)cccc1F (stereo not shown) [2,6-difluoromandelic acid, 2,6-Difluoromandelic acid] | –
5 | – | CCOC(=O)c1cnc(NC2CCC2=O)nc1C (stereo not shown) [Example 47, Ethyl 4-methyl-2-((2-oxocyclobutyl)amino)pyrimidine-5-carboxylate] | dimer-4 formation ([2]; 0.125 mg/mL, 20° C., pH 2.0 in 0.1% TFA): not observed; dimer-1 level [2, 3]: 2.35%; dimer-2 level [2, 3]: 2.3%; dimer-3 level [2, 3]: 5.2%; dimer-1 level [2, 4]: 0.06%; dimer-2 level [2, 4]: 0.06%; dimer-3 level [2, 4]: 0.11%; fraction of dimer-4 at equilibrium ([2]; 0.5 mg/mL, pH7.4 HEPES buffer with BSA): > 14%; Dimer 4 level ([2]; 0.5 mg/mL, pH7.4 HEPES buffer, in the absence of BSA): 4.73%; Dimer 4 level ([2]; 0.5 mg/mL, pH7.4 HEPES buffer, in the presence of BSA): 13.75%; dimer-4 level ([2]; pH7.4 HEPES buffer, 169 h): 1.82%; levels of dimers-1, -2, and -3 ([2]; pH7.4 HEPES buffer, over 169 h): below 0.01%; dimer-4 level ([2]; pH7.4 HEPES buffer, start): < 0.015%
6 | lower affinities for boronic acids | O[C@@H]1CCCC[C@@H]1O [cis-1,2-cyclohexanediol, cis-1,2-Cyclohexanediol] | –
7 | lower affinities for boronic acids | CNCC(O)CO (stereo not shown) [3-methylamino-1,2-propanediol, 3-Methylamino-1,2-propanediol] | –
8 | lower affinities for boronic acids | O[C@@H]1CCCC[C@H]1O (relative stereo) [trans-1,2-cyclohexanediol, trans-1,2-Cyclohexanediol] | –
9 | lower affinities for boronic acids | CC(O)C(=O)O (stereo not shown) [lactic acid (solution), Lactic acid] | –
10 | lower affinities for boronic acids | O=C(O)C1(O)CNC1 [3-hydroxyazetidine-3-carboxylic acid] | –
11 | lower affinities for boronic acids | O=C(O)C(O)c1ccc(F)cc1F (stereo not shown) [2,4-difluoromandelic acid, 2,4-Difluoromandelic acid] | –
12 | lower affinities for boronic acids | O=C(O)C(=O)Cc1ccccc1 [phenylpyruvic acid, Phenylpyruvic acid] | –
13 | lower affinities for boronic acids | CC(C)(O)C(C)(C)O [pinacol, Pinacol] | –
14 | lower affinities for boronic acids | COc1cccc(CO)c1O [2-hydroxy-3-methoxybenzyl alcohol, 2-Hydroxy-3-methoxybenzyl alcohol] | –
15 | lower affinities for boronic acids | CC(CO)(CO)C(=O)O [2,2-bis(hydroxymethyl)propionic acid, 2,2-Bis(hydroxymethyl)propionic acid] | –
16 | lower affinities for boronic acids | Cc1ccc(O)c(N)c1 [2-amino-4-methylphenol, 2-Amino-4-methylphenol] | –

Row | affinity of diol or other ligand for boronic acids in aqueous solution (in words) [1] | SMILES | also measured
17 | lower affinities for boronic acids | O[C@@H]1CNC[C@@H]1O [(3S,4R)-pyrrolidine-3,4-diol] | –
18 | lower affinities for boronic acids | O=C(O)C(O)c1ccccc1F (stereo not shown) [2-fluoromandelic acid, 2-Fluoromandelic acid] | –
19 | lower affinities for boronic acids | O=C(O)C(O)c1ccc(C(F)(F)F)cc1 (stereo not shown) [4-(trifluoromethyl)mandelic acid, 4-(Trifluoromethyl)mandelic acid] | –
20 | lower affinities for boronic acids | CC(O)(C(=O)O)C(F)(F)F (stereo not shown) [3,3,3-Trifluoro-2-hydroxy-2-methylpropionic Acid] | –
21 | lower affinities for boronic acids | O=C(O)C(O)c1cccc(F)c1F (stereo not shown) [2,3-difluoromandelic acid, 2,3-Difluoromandelic acid] | –
22 | lower affinities for boronic acids | O=C[C@H](O)[C@@H](O)[C@H](O)[C@H](O)CO [D-(+)-glucose, D-(+)-Glucose] | –
23 | lower affinities for boronic acids | CNc1ccccc1O [2-(methylamino)phenol, 2-(Methylamino)phenol] | –
24 | lower affinities for boronic acids | O=C(O)C(O)c1cc(F)ccc1F (stereo not shown) [2,5-difluoromandelic acid, 2,5-Difluoromandelic acid] | –
25 | lower affinities for boronic acids | O=C(O)C(O)c1cc(F)cc(F)c1 (stereo not shown) [3,5-difluoromandelic acid, 3,5-Difluoromandelic acid] | –
26 | lower affinities for boronic acids | O=C(NCCO)c1ccccc1O [N-(2-hydroxyethyl)salicylamide, N-(2-Hydroxyethyl)salicylamide] | –
27 | lower affinities for boronic acids | O=C(O)c1ccccc1O [salicylic acid, Salicylic acid] | –
28 | lower affinities for boronic acids | CC(N)(CO)CO [2-amino-2-methyl-1,3-propanediol, 2-Amino-2-methyl-1,3-propanediol] | –
29 | lower affinities for boronic acids | O=C(CO)CO [1,3-dihydroxyacetone] | –
30 | lower affinities for boronic acids | O=C(O)C(O)c1ccccc1 (racemic) [DL-mandelic acid, DL-Mandelic acid] | –
31 | lower affinities for boronic acids | NC(CO)(CO)CO [tris base (TRIZMA Base), Tris Base (TRIZMA Base)] | –
32 | lower affinities for boronic acids | CC(CO)(CO)CO [1,1,1-tris(hydroxymethyl)ethane, 1,1,1-Tris(hydroxymethyl)ethane] | –

Row | SMILES | affinity of diol or other ligand for boronic acids in aqueous solution (in words) [1] | also measured
33 | O=C(O)C(O)(C(F)(F)F)C(F)(F)F [3,3,3-Trifluoro-2-hydroxy-2-(trifluoromethyl)propionic acid] | lower affinities for boronic acids | –
34 | O=C([O-])C(=O)CO.[Li+] [hydroxypyruvic acid, lithium salt, Hydroxypyruvic acid, Lithium salt] | lower affinities for boronic acids | –
